# Measurements from the supplement of paper PMC10307832.
# Experiments:
# Assay in all cases: relative viability (nuclei count vs DMSO), 5 days (fraction); higher = more cells survive
# Bortezomib + Lapatinib = compound: CC(C)C[C@H](NC(=O)[C@H](Cc1ccccc1)NC(=O)c1cnccn1)B(O)O [Bortezomib] + CS(=O)(=O)CCNCc1ccc(-c2ccc3ncnc(Nc4ccc(OCc5cccc(F)c5)c(Cl)c4)c3c2)o1 [Lapatinib] (partner 2 µM)
# Outline: (§1)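 After 5 days of treatment, lung cancer cells in 1536-well plates were fixed and stained in a single step (final 0.05% Triton X-100, 1% formaldehyde, 1 ug/ml Hoechst) and their nuclei counted on 4× images. Treatment had been applied by pin tool the day after seeding as one drug alone or as a fixed anchor-drug dose with five library-drug doses (not always all listed) in √10 steps. Relative viability is the nuclei count of treated wells divided by that of vehicle wells, and values are medians of duplicate plates.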
# [1] = compound: CC1=CC(=NN1)NC2=CC(=NC(=N2)/C=C/C3=CC=CC=C3)N4CCN(CC4)C + CS(=O)(=O)CCNCc1ccc(-c2ccc3ncnc(Nc4ccc(OCc5cccc(F)c5)c(Cl)c4)c3c2)o1 [Lapatinib] (partner 2 µM)
# Outline: as §1
# Obatoclax + Luminespib = compound: COC1=CC(c2cc3ccccc3[nH]2)=N/C1=C\c1[nH]c(C)cc1C [Obatoclax] + CCNC(=O)c1noc(-c2cc(C(C)C)c(O)cc2O)c1-c1ccc(CN2CCOCC2)cc1 [Luminespib] (partner 0.01 µM)
# Outline: as §1
# Obatoclax + OSI-027 = compound: COC1=CC(c2cc3ccccc3[nH]2)=N/C1=C\c1[nH]c(C)cc1C [Obatoclax] + COc1cccc2cc(-c3nc([C@H]4CC[C@H](C(=O)O)CC4)n4ncnc(N)c34)[nH]c12 [OSI-027] (partner 0.5 µM)
# Outline: as §1
Cell Line,relative viability (Bortezomib + Lapatinib; first compound 0.000632 µM),relative viability (Bortezomib + Lapatinib; first compound 0.002 µM),relative viability (Bortezomib + Lapatinib; first compound 0.006325 µM),relative viability (Bortezomib + Lapatinib; first compound 0.02 µM),relative viability ([1]; first compound 0.08 µM),relative viability ([1]; first compound 0.253 µM),relative viability ([1]; first compound 0.8 µM),relative viability ([1]; first compound 2.53 µM),relative viability ([1]; first compound 8 µM),relative viability (Obatoclax + Luminespib; first compound 0.01 µM),relative viability (Obatoclax + Luminespib; first compound 0.03162 µM),relative viability (Obatoclax + Luminespib; first compound 0.1 µM),relative viability (Obatoclax + Luminespib; first compound 0.3162 µM),relative viability (Obatoclax + Luminespib; first compound 1 µM),relative viability (Obatoclax + OSI-027; first compound 0.01 µM),relative viability (Obatoclax + OSI-027; first compound 0.03162 µM),relative viability (Obatoclax + OSI-027; first compound 0.1 µM),relative viability (Obatoclax + OSI-027; first compound 0.3162 µM),relative viability (Obatoclax + OSI-027; first compound 1 µM),relative viability (Bortezomib + Lapatinib; first compound 0.0002 µM)
NCI-H23,0.866,1.06,0.156,0.135,0.981,1.37,1,0.46,0.139,0.21,0.193,0.195,0.185,0.191,0.632,0.62,0.626,0.503,0.243,
NCI-H322M,,0.523,0.541,0.393,0.56,0.67,0.507,0.321,0.208,0.949,0.809,,0.758,0.39,0.531,0.338,,0.462,0.386,0.573
NCI-H358,0.431,0.43,0.144,0.155,0.511,0.471,0.335,0.147,0.134,0.395,0.245,0.449,0.351,0.161,0.736,0.871,0.903,0.379,0.199,0.367
NCI-H460,0.975,1.03,0.0212,0.014,0.909,0.952,0.943,0.0124,0.0122,0.0359,0.0371,0.0282,0.0268,0.019,0.697,0.703,0.635,0.0709,0.0443,0.879
NCI-H520,0.857,0.271,0.108,0.128,0.831,0.887,0.573,0.182,0.0952,0.231,0.215,0.257,0.246,0.205,0.256,0.284,0.406,0.251,0.243,0.91
NCI-H596,1,0.99,0.245,0.264,0.976,1.09,0.912,0.505,0.286,1.04,0.852,0.859,0.611,0.574,0.837,0.602,0.65,0.504,0.425,0.947
NCI-H647,1.05,0.711,0.0371,0.0208,1.02,1.29,1.08,0.0749,0.0425,0.128,0.186,0.179,0.21,0.114,0.606,0.692,0.585,0.346,0.184,1.05
NCI-H661,0.512,0.406,0.297,0.18,0.489,0.53,0.57,0.419,0.146,0.917,0.937,0.921,0.808,0.601,0.689,0.704,0.709,0.649,0.407,0.458
NCI-H727,0.872,0.864,0.229,0.113,0.744,0.525,0.805,0.494,0.193,0.278,0.344,0.347,0.316,0.342,0.776,0.554,0.857,0.61,0.453,0.654
NCI-H838,0.982,0.936,0.121,0.114,1.03,1.28,0.831,0.214,0.091,0.226,0.222,0.3,0.243,0.188,0.498,0.367,0.46,0.385,0.284,0.897
NCI-H1355,0.906,1.2,0.6,0.134,1.11,1.03,0.944,0.645,0.422,0.641,0.588,0.769,0.632,0.78,0.391,0.386,0.462,0.422,0.399,0.948
NCI-H1395,0.79,0.449,0.499,0.28,1.22,1.03,0.932,0.456,0.275,0.634,0.491,0.701,0.523,0.421,0.659,0.539,0.473,0.557,0.465,0.998
NCI-H1437,0.878,0.806,0.0943,0.0863,0.853,0.909,0.833,0.347,0.105,1.09,1.17,1.04,0.983,0.956,0.868,0.889,0.835,0.859,0.752,0.655
NCI-H1563,0.869,0.684,0.506,0.481,0.905,0.784,0.91,0.667,0.403,0.519,0.528,0.529,0.503,0.517,0.741,0.797,0.87,0.705,0.619,0.809
NCI-H1650,0.482,0.154,0.17,0.181,0.775,0.739,0.946,0.109,0.0756,0.172,0.208,0.21,0.202,0.23,0.677,0.552,0.644,0.386,0.225,0.279
NCI-H1651,0.74,0.301,0.128,0.103,0.924,0.941,0.803,0.313,0.123,0.866,0.792,1.16,0.811,0.516,0.628,0.712,0.804,0.428,0.252,0.709
